Measured values: article PMC9260921, “Design and Synthesis of Carbothioamide/Carboxamide-Based Pyrazoline Analogs as Potential Anticancer Agents: Apoptosis, Molecular Docking, ADME Assay, and DNA Binding Studies” (ACS Omega, 2022)
≈ marks a conversion by molar mass, not a printed value.

What was measured:
[1] = system: human lung cancer cell (A549); experiment: MTT cytotoxicity assay, A549; format: cell-based; details: for Selectivity Index A549: HFL-1 vs A549; for IC50: Homo sapiens, MTT, 24 h treatment, A549
Experimental: (§1) The American type culture collection (ATCC, USA) provided human lung cancer cell line (A549), cervical cancer cell line (HeLa), and human primary normal lung cells (HFL-1) for this investigation. In a water-jacketed cell culture incubator, all of these cell types were cultured according to conventional culture conditions at 37 °C with 5% CO2. These cells were cultured in appropriate cell culture media. A549 cells were grown in DMEM media with 2 mM glutamine, HeLa cells were grown in Eagle’s minimum essential medium (EMEM) as recommended, whereas HFL-1 cells were also grown in F-12K. Fetal bovine serum 10% (FBS) was added to the entire medium. At a rate of 8000 cells were seeded in triplicate in a single 96-well plate for the MTT technique of cell death investigation. […] After the treatment period was finished, the media was removed, and each well was gently washed three times with PBS to clear any remaining residue just before the experiment. […] The plates were incubated at 37 °C for 4 h after the MTT was added. We used DMSO to remove crystals after the incubation period was completed. A hybrid multi-mode plate reader (BioTek, USA) with a microplate reader was used to measure absorbance at 570 nm. The percentage inhibition was calculated using eq 1: [drawing 1] 1 where ODtreated is the mean optical density (OD) of the treated cells and ODcontrol is the OD of the vehicle control cells (negative control).
(§2) With all of the experimental drugs, we conducted the MTT assay three times. Prism8 software (GraphPad) was used to determine the IC50 values of the various drugs, which were then expressed as a drug concentration (μM).

EB-DNA complex (Ct-DNA) = experiment: Ethidium bromide dye displacement assay; format: binding; details: quenching of EB-DNA fluorescence
Text: Competitive fluorescence binding experiments utilizing ethidium bromide, a standard intercalation indicator, were used to evaluate the degree of molecular binding interaction mechanism of an active drug with Ct-DNA. […] The observable changes in the EB–DNA adduct’s emission spectrum as a function of quencher addition are particularly valuable for researching compound–DNA interactions. Fluorescence measurements were done in Tris-buffer at a 515 nm excitation wavelength in the range of 530–700 nm. Slit widths for both emission and excitation were set at about 10 nm.[54],[69]

A549 cells = experiment: Annexin V-FITC/PI flow cytometry apoptosis assay; format: cell-based, human; details: 4 μM, 24 h, control 11.41%
Experimental: We used flow cytometry analysis on A549 and HeLa cells for the quantitative apoptosis assay. As previously stated, cells were cultivated at 1.0 × 10^5 cells/ml and plated in 24-well culture plates (Corning) for 24 h. Cells were cultured for further 24 h after being treated with 4 μm of target drugs 3a and 3h. For analysis, the medium was discarded and cells were washed briefly in PBS, and then, the trypsinization protocol was carried out. Furthermore, cells were suspended in PBS and stained with annexin in V-FITC/PI according to the supplier technique (Sigma, USA, catalogue number: APOAF-20TST). After adding the reagents, the cells were allowed to incubate for 30 min at room temperature before being analyzed in PBS. The analysis was conducted on a BD FACS Accuri (BD Biosciences, USA), and the results were analyzed using FlowJo software (BD Biosciences, USA).[42]

Ct-DNA [2] = experiment: Fluorescence emission titration; format: binding; details: DNA 10 μM, compound 10–80 μM
Experimental: Drug interactions with Ct-DNA have been studied using fluorescence assays. The experiments were achieved by varying drug concentration from 10 to 80 μM while keeping the concentration of DNA (10 μM) constant. Before making emission observation, the synthesized compound was incubated for 3 min with mixing DNA, after which emission titration was collected in Tris-buffer (pH 7.4) excitation at wavelength 260 nm, and the quenching results were analyzed using the Stern–Volmer equation (eq 3): [drawing 3] 3 Slit width has been kept constant at 10 nm during emission and excitation. The titration experiments were repeated three times (n = 3) to ensure consistent results.[50]−[52]

[3] = system: human primary normal lung cells (HFL-1); experiment: MTT cytotoxicity assay, HFL-1; format: cell-based; details: HFL1, 24 h treatment
Experimental: as §1, §2

[4] = DPPH radical scavenging antioxidant assay; details: 1 h incubation in the dark
Experimental: The antioxidant activity of the 3a and 3h was determined using the DPPH ([…]) radical scavenging technique, as reported.[60],[73] In methanol, the DPPH radical has a purple color and has a strong absorption band with a maximum of 517 nm. Compound concentrations ranging from 1 to 4 μM were mixed with DPPH at a concentration of 10 μM. The mixtures were properly mixed and then incubated at room temperature for 1 h in the dark. The standard reference was ascorbic acid. As a control, DPPH in methanol was utilized. The % of DPPH radical scavenged was used to calculate the antioxidant activity of the compounds, which was calculated using eq 5: [drawing 5] 5 where Acontrol = DPPH absorbance; Asample = sample with DPPH absorbance.

[5] = system: human cervical cancer cell (HeLa); experiment: MTT cytotoxicity assay, HeLa; format: cell-based; details: for Selectivity Index HeLa: HFL-1 vs HeLa; for IC50: Homo sapiens, MTT, 24 h treatment, HeLa
Experimental: as §1, §2

Ct-DNA [6] = experiment: Cyclic voltammetry; format: binding; details: Tris-buffer, 100 mV s^–1, DNA 10–40 μM
Experimental: Using this experiment, a drug–DNA binding interaction has also been investigated. The solution’s pH was maintained before analysis, and the entire analytical equipment was built at 25 °C with a constant potential of 100 mV s^–1 scan rate and a voltage range of −1 to +1 V. The spectra of a test compound (60 μL) were recorded using a screen-printed electrode (SPE). These experiments were carried out in a 1:1 ferri/ferrocyanide solution ratio. Various concentrations of Ct-DNA (Tris-buffer) were used to further evaluate test compounds 3a and 3h. The working electrode is made of the test compound, whereas the counter and reference electrodes are made of gold-coated copper. Binding constants were obtained using eq 4: [drawing 4] 4 where I0 and I are the peak currents of compound and compound–DNA complexes, respectively.[56]

[7] = system: breast cancer cell line (MCF-7); design: method as in PMID 20627597; details: cited from earlier work
HeLa = system: HeLa; design: method as in PMID 27159418; details: cited from earlier work

Structure (SMILES) | Selectivity Index A549 [1] | IC50 [1] [µM] | Stern–Volmer constant KSV (EtBr displacement) (EB-DNA complex (Ct-DNA)) | cell death (sum of Q1+Q2+Q3) (A549 cells) [%] | Stern–Volmer constant KSV (emission titration) (Ct-DNA [2]) | IC50 [3] [µM] | IC50 DPPH radical scavenging [4] [µg/mL] | Selectivity Index HeLa [5] | IC50 [5] [µM] | binding constant K (cyclic voltammetry) (Ct-DNA [6]) | IC50 [7] [µM] | IC50 (HeLa) [µM]
CN(C)c1ccc(C2CC(c3ccc(Cl)cc3)=NN2C(N)=S)cc1 (stereo not drawn) [Compound 3a] | 8.4 | 13.5 ± 0.17 | 1.84 × 10^4 M^–1 | 25.86 | 5.80 × 10^3 M^–1 | 114.5 ± 0.01 | 0.132 ± 0.012 (≈ 0.368 µM) | 6.5 | 17.52 ± 0.09 | 1.25 × 10^4 |  | 
CN(C)c1ccc(C2CC(c3cccc4ccccc34)=NN2C(N)=O)cc1 (stereo not drawn) [Compound 3k] | 0.5 | 52.76 ± 0.28 |  |  |  | 27.52 ± 0.06 |  | 0.2 | 96.46 ± 0.25 |  |  | 
CN(C)c1ccc(C2CC(c3cccc(Br)c3)=NN2C(N)=O)cc1 (stereo not drawn) [Compound 3h] | 7.6 | 22.5 ± 0.25 | 1.69 × 10^4 M^–1 | 20.60 | 4.28 × 10^3 M^–1 | 173 ± 10 | 0.215 ± 0.025 (≈ 0.555 µM) | 7.1 | 24.1 ± 0.86 | 7.1 × 10^3 |  | 
COc1ccc(C2CC(c3ccc(C)c(C)c3)=NN2C(N)=S)cc1 (stereo not drawn) [Compound 1] |  |  |  |  |  |  |  |  |  |  | 0.08 | 
COc1cc(C2=NN(C(N)=O)C(c3cn(C)c4ccc(Br)cc34)C2)cc(OC)c1OC (stereo not drawn) [Compound 2] |  |  |  |  |  |  |  |  |  |  |  | 0.21
CN(C)c1ccc(C2CC(c3ccc(Br)cc3)=NN2C(N)=S)cc1 (stereo not drawn) [Compound 3f] | 2.0 | 94.18 ± 0.11 |  |  |  | 194.33 ± 0.01 |  | 1.1 | 168.8 ± 0.36 |  |  | 
CN(C)c1ccc(C2CC(c3cccc([N+](=O)[O-])c3)=NN2C(N)=S)cc1 (stereo not drawn) [Compound 3c] | 1.1 | 163.9 ± 0.07 |  |  |  | 185.3 ± 0.21 |  | 1.4 | 123.6 ± 0.2 |  |  | 
CN(C)c1ccc(C2CC(c3cccc4ccccc34)=NN2C(N)=S)cc1 (stereo not drawn) [Compound 3j] | 0.5 | 290.09 ± 0.14 |  |  |  | 166.75 ± 0.03 |  | 0.8 | 194.2 ± 0.44 |  |  | 
CN(C)c1ccc(C2CC(c3ccc(Cl)cc3)=NN2C(N)=O)cc1 (stereo not drawn) [Compound 3g] | 0.4 | 59.74 ± 0.18 |  |  |  | 26.94 ± 0.08 |  | 0.03 | 890.3 ± 0.22 |  |  | 
COc1cccc(C2=NN(C(N)=O)C(c3cn(C)c4ccc(Br)cc34)C2)c1 (stereo not drawn) [Compound 3] |  |  |  |  |  |  |  |  |  |  |  | 0.25
CCN(CC)c1ccc(C2CC(c3ccc(Br)cc3)=NN2C(N)=S)cc1 (stereo not drawn) [Compound 3l] | 4.2 | 43.93 ± 0.13 |  |  |  | 185.45 ± 0.14 |  | 10.5 | 17.7 ± 0.42 |  |  | 
CN(C)c1ccc(C2CC(c3ccccc3Cl)=NN2C(N)=S)cc1 (stereo not drawn) [Compound 3d] | 1.8 | 118.7 ± 0.08 |  |  |  | 217.03 ± 0.02 |  | 14.46 | 15 ± 0.46 |  |  | 
CN(C)c1ccc(C2CC(c3ccc([N+](=O)[O-])cc3)=NN2C(N)=O)cc1 (stereo not drawn) [Compound 3i] | 0.9 | 174.84 ± 0.05 |  |  |  | 165.84 ± 0.03 |  | 2.0 | 80.7 ± 0.28 |  |  | 
CN(C)c1ccc(C2CC(c3cccc(Br)c3)=NN2C(N)=S)cc1 (stereo not drawn) [Compound 3b] | 1.0 | 222.3 ± 0.09 |  |  |  | 227.98 ± 0.04 |  | 1.5 | 150.1 ± 0.24 |  |  | 
Cc1ccc(C2=NN(C(N)=S)C(c3ccc(N(C)C)cc3)C2)cc1 (stereo not drawn) [Compound 3e] |  | 37.07 ± 0.14 |  |  |  | 244.64 ± 0.05 |  | 17.4 | 14.1 ± 0.4 |  |  | 
